Measured values reported in patent US10035760B2, “Inhibitors of human immunodeficiency virus replication” (priority 2013, dated 2018).
Where two headings read alike, the source gives them in different places.

Test system: recombinant NL4-3 virus (Renilla luciferase) in MT-2 cells
Assay: HIV cell culture assay (antiviral activity, luciferase readout in infected MT-2 cells)
Format: cell-based
Conditions: Renilla
How it was run: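 EC50 derived via median-effect equation from luciferase activity in MT-2 cells after 4–5 day infection, compound serially diluted. Virus: recombinant NL4-3 with Renilla luciferase replacing part of nef, made in 293T cells.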

[1] = NL43, read-out: Activity, antiviral activity class, recombinant NL4-3 Renilla luciferase virus in MT-2 cells
[2] = NL43, recombinant NL4-3 Renilla luciferase virus in MT-2 cells

SMILES: COc1ccc(N(C)C(=O)[C@H](Cc2ccccn2)NC(=O)NS(=O)(=O)c2ccccc2C)cc1 [Example 192, (S)—N-(4-methoxyphenyl)-N-methyl-3-(pyridin-2-yl)-2-(3-(o-tolylsulfonyl)ureido)propanamide]
- EC50 [1]: 10000 to 100000 nM

SMILES: COc1ccc(N(C)C(=O)[C@H](Cn2cncn2)NC(=O)NS(=O)(=O)c2ccccc2C)cc1 [Example 193, (S)—N-(4-methoxyphenyl)-N-methyl-2-(3-(o-tolylsulfonyl)ureido)-3-(1H-1,2,4-triazol-1-yl)propanamide]
- EC50 [2]: > 100000 nM

SMILES: COc1ccc(N(C)C(=O)[C@H](Cc2cccnc2)NC(=O)NS(=O)(=O)c2ccccc2C)cc1 [Example 194, (S)—N-(4-methoxyphenyl)-N-methyl-3-(pyridin-3-yl)-2-(3-(o-tolylsulfonyl)ureido)propanamide]
- EC50 [1]: 10000 to 100000 nM

SMILES: COc1ccc(N(C)C(=O)[C@H](CC2CCCCC2)NC(=O)NS(=O)(=O)c2ccccc2C)cc1 [Example 195, (S)-3-cyclohexyl-N-(4-methoxyphenyl)-N-methyl-2-(3-(o-tolylsulfonyl)ureido)propanamide]
- EC50 [1]: 1000 to 10000 nM

SMILES: COc1ccc(N(C)C(=O)[C@H](CC2CCCC2)NC(=O)NS(=O)(=O)c2ccccc2C)cc1 [Example 196, (S)-3-cyclopentyl-N-(4-methoxyphenyl)-N-methyl-2-(3-(o-tolylsulfonyl)ureido)propanamide]
- EC50 [1]: 10000 to 100000 nM

SMILES: COc1ccc(N(C)C(=O)[C@@H](NC(=O)NS(=O)(=O)c2ccccc2C)[C@@H](C)c2ccccc2)cc1 [Example 197, (2S,3S)—N-(4-methoxyphenyl)-N-methyl-3-phenyl-2-(3-(o-tolylsulfonyl)ureido)butanamide]
- EC50 [1]: 10000 to 100000 nM
- EC50 [2]: 11500 nM

SMILES: COc1ccc(N(C)C(=O)[C@H](Cc2cccs2)NC(=O)NS(=O)(=O)c2ccccc2C)cc1 [Example 198, (S)—N-(4-methoxyphenyl)-N-methyl-3-(thiophen-2-yl)-2-(3-(o-tolylsulfonyl)ureido)propanamide]
- EC50 [1]: 100 to 1000 nM
- EC50 [2]: 270 nM

SMILES: COc1ccc(N(C)C(=O)[C@H](Cc2ccncc2)NC(=O)NS(=O)(=O)c2ccccc2C)cc1 [Example 199, (S)—N-(4-methoxyphenyl)-N-methyl-3-(pyridin-4-yl)-2-(3-(o-tolylsulfonyl)ureido)propanamide]
- EC50 [1]: 10000 to 100000 nM

SMILES: COc1ccc(N(CC(F)(F)F)C(=O)[C@H](Cc2ccccc2)NC(=O)NS(=O)(=O)c2ccccc2C)cc1 [Example 200, (S)—N-(4-methoxyphenyl)-3-phenyl-2-(3-(o-tolylsulfonyl)ureido)-N-(2,2,2-trifluoroethyl)propanamide]
- EC50 [1]: 100 to 1000 nM

SMILES: CCN(C(=O)[C@H](Cc1ccccc1)NC(=O)NS(=O)(=O)c1ccccc1Br)c1ccc(OC)cc1 [Example 201, (S)-2-(3-((2-bromophenyl)sulfonyl)ureido)-N-ethyl-N-(4-methoxyphenyl)-3-phenylpropanamide]
- EC50 [1]: < 100 nM

SMILES: CCN(C(=O)[C@H](Cc1ccccc1)NC(=O)NS(=O)(=O)c1ccc2c(ccn2CC)c1)c1ccc(OC)cc1 [Example 203, (S)—N-ethyl-2-(3-((1-ethyl-1H-indol-5-yl)sulfonyl)ureido)-N-(4-methoxyphenyl)-3-phenylpropanamide]
- EC50 [1]: 100 to 1000 nM

SMILES: COc1ccc(N(C)C(=O)[C@H](Cc2cc(F)cc(F)c2)NC(=O)NS(=O)(=O)c2ccccc2F)cc1 [Example 204, (S)-3-(3,5-difluorophenyl)-2-(3-((2-fluorophenyl)sulfonyl)ureido)-N-(4-methoxyphenyl)-N-methylpropanamide]
- EC50 [1]: 100 to 1000 nM

SMILES: COc1ccc(N(C)C(=O)[C@H](Cc2cc(F)cc(F)c2)NC(=O)NS(=O)(=O)c2ccccc2C)cc1 [Example 205, (S)-3-(3,5-difluorophenyl)-N-(4-methoxyphenyl)-N-methyl-2-(3-(o-tolylsulfonyl)ureido)propanamide]
- EC50 [1]: 100 to 1000 nM
- EC50 [2]: 110 nM

SMILES: CN(C(=O)[C@H](Cc1ccccc1)NC(=O)NS(=O)(=O)c1ccccc1Cl)c1ccc2c(c1)CCC2 [Example 206, (S)-2-(3-((2-chlorophenyl)sulfonyl)ureido)-N-(2,3-dihydro-1H-inden-5-yl)-N-methyl-3-phenylpropanamide]
- EC50 [1]: < 100 nM

SMILES: Cc1ccccc1S(=O)(=O)NC(=O)N[C@@H](Cc1ccccc1)C(=O)N(C)c1ccc2c(c1)CCC2 [Example 207, (S)—N-(2,3-dihydro-1H-inden-5-yl)-N-methyl-3-phenyl-2-(3-(o-tolylsulfonyl)ureido)propanamide]
- EC50 [1]: < 100 nM

SMILES: CN(C(=O)[C@H](Cc1ccccc1)NC(=O)NS(=O)(=O)c1ccccc1)c1ccc2c(c1)CCC2 [Example 208, (S)—N-(2,3-dihydro-1H-inden-5-yl)-N-methyl-3-phenyl-2-(3-(phenylsulfonyl)ureido)propanamide]
- EC50 [1]: 100 to 1000 nM

SMILES: Cc1ccccc1S(=O)(=O)NC(=O)N[C@@H](CCc1ccccc1)C(=O)N(C)c1ccc2c(c1)OCO2 [Example 209, (S)—N-(benzo[d][1,3]dioxol-5-yl)-N-methyl-4-phenyl-2-(3-(o-tolylsulfonyl)ureido)butanamide]
- EC50 [1]: 10000 to 100000 nM

SMILES: Cc1ccccc1S(=O)(=O)NC(=O)N[C@H](CCc1ccccc1)C(=O)N(C)c1ccc2c(c1)OCO2 [Example 210, (R)—N-(benzo[d][1,3]dioxol-5-yl)-N-methyl-4-phenyl-2-(3-(o-tolylsulfonyl)ureido)butanamide]
- EC50 [1]: 10000 to 100000 nM

SMILES: C=Cc1cccc(C[C@H](NC(=O)NS(=O)(=O)c2ccccc2C=C)C(=O)N(C)c2ccc(OC)cc2)c1 [Example 212, (S)—N-(4-methoxyphenyl)-N-methyl-3-(3-vinylphenyl)-2-(3-((2-vinylphenyl)sulfonyl)ureido)propanamide]
- EC50 [1]: < 100 nM
- EC50 [2]: 58 nM

SMILES: C=CCCOc1cccc(C[C@H](NC(=O)NS(=O)(=O)c2ccccc2C=C)C(=O)N(C)c2ccc(OC)cc2)c1 [Example 213, (S)-3-(3-(but-3-en-1-yloxy)phenyl)-N-(4-methoxyphenyl)-N-methyl-2-(3-((2-vinylphenyl)sulfonyl)ureido)propanamide]
- EC50 [1]: 1000 to 10000 nM
- EC50 [2]: 5070 nM

SMILES: CCN(C(=O)[C@H](Cc1ccccc1)NC(=O)NS(=O)(=O)c1cccc(-c2ccnn2CC(C)C)c1C)c1ccc(OC)cc1 [Example 214, (S)—N-ethyl-2-(3-((3-(1-isobutyl-1H-pyrazol-5-yl)-2-methylphenyl)sulfonyl)ureido)-N-(4-methoxyphenyl)-3-phenylpropanamide]
- EC50 [1]: 100 to 1000 nM
- EC50 [2]: 870 nM

SMILES: CCc1cccc(C[C@H](NC(=O)NS(=O)(=O)c2ccccc2CC)C(=O)N(C)c2ccc(OC)cc2)c1 [Example 215, (S)-3-(3-ethylphenyl)-2-(3-((2-ethylphenyl)sulfonyl)ureido)-N-(4-methoxyphenyl)-N-methylpropanamide]
- EC50 [1]: 100 to 1000 nM

SMILES: C=CCOc1ccc(N(C)C(=O)[C@H](Cc2ccccc2)NC(=O)NS(=O)(=O)c2ccccc2C)cc1 [Example 216, (S)—N-(4-(allyloxy)phenyl)-N-methyl-3-phenyl-2-(3-(o-tolylsulfonyl)ureido)propanamide]
- EC50 [1]: < 100 nM

SMILES: Cc1ccccc1S(=O)(=O)NC(=O)N[C@@H](Cc1ccccc1)C(=O)N(C)c1ccc(OCC(N)=O)cc1 [Example 217, (S)—N-(4-(2-amino-2-oxoethoxy)phenyl)-N-methyl-3-phenyl-2-(3-(o-tolylsulfonyl)ureido)propanamide]
- EC50 [1]: 100 to 1000 nM

SMILES: Cc1ccccc1S(=O)(=O)NC(=O)N[C@@H](Cc1ccccc1)C(=O)N(C)c1ccccc1 [Example CA-67, (S)—N-methyl-N, 3-diphenyl-2-(3-(o-tolylsulfonyl)ureido)propanamide]
- EC50 [1]: 100 to 1000 nM
- EC50 [2]: 490 nM
